Structures are written as SMILES. Counter-ions that a name gives are not always drawn. Like-named read-outs stand apart in the source and are kept apart here.

For 17 compounds, IC50 results are on record in US7868013B2, “Cycloalkyl substituted pyrimidinediamine compounds and their uses” (Rigel Pharmaceuticals, Inc., priority 2004, dated 2011).

The subject of one assay is A549 (lung carcinoma). In words: In vitro antiproliferation assay, A549 cells (TABLE 1 6 point assay; TABLE 2). Type of assay: cell-based. To be noted: Homo sapiens. The protocol:
(§1) Certain compounds were tested against other cell types for their ability to inhibit proliferation in standard antiproliferation assays.

Assay [1] relates to H1299 (non-small cell lung carcinoma). The assay is described as follows: In vitro antiproliferation assay, H1299 cells (TABLE 1 6 point assay; TABLE 2). It is filed as cell-based. To be noted: Homo sapiens. The protocol: as §1
Where [2] appears, read: A549, A549 cells, 6 point assay, read-out: A549, 6pt (IC50, inhibition of proliferation).
[3] abbreviates: NCI-H1299, H1299 cells, 6 point assay, read-out: H1299, 6pt (IC50, inhibition of proliferation).
[4] abbreviates: A549, 6 point assay, A549 cells, read-out: IC50, A549 cells.
Where [5] appears, read: NCI-H1299, 6 point assay, H1299 cells, read-out: IC50, H1299 cells.

As to `Cc1cc(Nc2ncc(F)c(NC3C4C=CC(C4)C3C(=O)NC3CC3)n2)ccc1N1CCN(C)CC1` (racemic) [compound 164, Racemic-(2-exo,3-exo)-N4-[3-(N-cyclopropyl)aminocarbonylbicyclo[2.2.1]hept-5-en-2-yl)-5-fluoro-N2-[3-methyl-4-(4-methylpiperazin-1-yl)phenyl]-2,4-pyrimidinediamine], the IC50 (in the assay on A549 (lung carcinoma) (setting [2]); in assay [1] (setting [3])) was ≤ 100 nM throughout.
For the compound `NC(=O)C1CCCC1Nc1nc(Nc2ccc(N3CCOCC3)cc2)ncc1F` (stereo not shown) [compound 198, N4-(2-Carboxamidocyclopentyl)-5-fluoro-N2-(4-morpholinophenyl)-2,4-pyrimidinediamine], the IC50 (with A549 (lung carcinoma) (setting [4]); in assay [1] (setting [5])) was 100 to 1000 nM in each case.
For `Cc1cc(Nc2ncc(F)c(N[C@H]3[C@@H](C(N)=O)[C@@H]4C=C[C@H]3C4)n2)ccc1N1CCN(CCO)CC1` [compound 116, (1R,2R,3S,4S)-N4-(3-Aminocarbonylbicyclo[2.2.1]hept-5-en-2-yl)-5-fluoro-N2-{4-[4-(2-hydroxyethyl)piperazin-1-yl]-3-methylphenyl}-2,4-pyrimidinediamine], the IC50 (in the assay on A549 (lung carcinoma) (setting [2]); in assay [1] (setting [3])) was ≤ 100 nM in each case.
With `NC(=O)[C@@H]1CCC[C@@H]1Nc1nc(Nc2ccc3c(c2)NCC3)ncc1F` (racemic) [compound 156, Racemic-cis-N4-(2-aminocarbonylcyclopent-1-yl)-N2-(2,3-dihydroindol-6-yl)-5-fluoro-2,4-pyrimidinediamine], the IC50 (in the assay with A549 (lung carcinoma) (setting [2]); in assay [1] (setting [3])) was 1000 to 10000 nM in each case.
With `CN1CCC(c2cccc(Nc3ncc(F)c(N[C@H]4[C@@H](C(N)=O)[C@@H]5C=C[C@H]4C5)n3)c2)CC1` [compound 275, (1R,2R,3S,4S)-N4-(3-Aminocarbonylbicyclo[2.2.1]hept-5-en-2-yl)-5-fluoro-N2-[3-(1-methylpiperidin-4-yl)phenyl]-2,4-pyrimidinediamine], the IC50 (in the assay on A549 (lung carcinoma) (setting [4]); in assay [1] (setting [5])) was ≤ 100 nM each time.
As for `Cc1cc(Nc2ncc(F)c(N[C@H]3C=C[C@@H](C(N)=O)C3)n2)ccc1N1CCN(C)CC1` [compound 226, (1R,4S)-cis-N4-(4-Aminocarbonylcyclopent-2-ene-1-yl)-5-fluoro-N2-[3-methyl-4-(4-methylpiperazin-1-yl)phenyl]-2,4-pyrimidinediamine], the IC50 (with A549 (lung carcinoma) (setting [4]); in assay [1] (setting [5])) was 1000 to 10000 nM throughout.
On to `COc1ccc(C(C)NC(=O)[C@H]2[C@@H](Nc3nc(Nc4ccc(N5CCN(C)CC5)c(C)c4)ncc3F)[C@@H]3C=C[C@H]2C3)cc1` (stereo partly drawn) [compound 124, (1S,2S,3R,4R)-5-Fluoro-N4-(3-(R)-4-methoxy-alpha-methylbenzylaminocarbonylbicyclo[2.2.1]hept-5-en-2-yl]-N2-(3-methyl-4-(4-methylpiperazin-1-yl)phenyl]-2,4-pyrimidinediamine], for which the IC50 (in the assay on A549 (lung carcinoma) (setting [2]); in assay [1] (setting [3])) was 100 to 1000 nM in each case.
`Cc1cc(Nc2ncc(F)c(NC3C4C=CC(C4)C3C(N)=O)n2)ccc1N1CCN(C2CCCCC2)CC1` (racemic) [compound 245, Racemic-(2-exo,3-exo)-N4-(3-aminocarbonylbicyclo[2.2.1]hept-5-en-2-yl)-N2-[4-(4-cyclohexylpiperazin-1-yl)-3-methylphenyl]-5-fluoro-2,4-pyrimidinediamine]: the IC50 (in the assay on A549 (lung carcinoma) (setting [4]); in assay [1] (setting [5])) was ≤ 100 nM in each case.
With `CN(C)CCn1ccc2cc(Nc3ncc(F)c(NC4C5C=CC(C5)C4C(=O)NC4CC4)n3)ccc21` (racemic) [compound 175, Racemic-(2-exo,3-exo)-N4-[3-cyclopropylaminocarbonylbicyclo[2.2.1]hept-5-en-2-yl)-N2-[1-(2-dimethylaminoethyl)indol-5-yl]-5-fluoro-2,4-pyrimidinediamine], the IC50 (in the assay on A549 (lung carcinoma) (setting [2]); in assay [1] (setting [3])) was ≤ 100 nM each time.
Take `Cc1cc(Nc2ncc(F)c(NC3C4CC5CC(C4)CC3C5)n2)ccc1N1CCN(C)CC1` (stereo not shown) [compound 258, N4-(2-Adamantyl)-5-fluoro-N2-[3-methyl-4-(4-methylpiperazin-1-yl)phenyl]-2,4-pyrimidinediamine]: the IC50 (in the assay with A549 (lung carcinoma) (setting [4]); in assay [1] (setting [5])) was 1000 to 10000 nM in each case.
On to `Cc1cc(Nc2ncc(F)c(NC3C4C=CC(C4)C3C(N)=O)n2)ccc1N1CCSCC1` (racemic) [compound 251, Racemic-(2-exo,3-exo)-N4-(3-aminocarbonylbicyclo[2.2.1]hept-5-en-2-yl)-5-fluoro-N2-[(3-methyl-1-thiomorpholin-4-yl)phenyl]-2,4-pyrimidinediamine], for which the IC50 (in the assay on A549 (lung carcinoma) (setting [4]); in assay [1] (setting [5])) was ≤ 100 nM each time.
In the case of `CN1CCC(c2cccc(Nc3ncc(F)c(N[C@H]4[C@@H](C(N)=O)[C@@H]5C=C[C@H]4C5)n3)c2)CC1` [compound 145, (1R,2R,3S,4S)-N4-(3-Aminocarbonylbicyclo[2.2.1]hept-5-en-2-yl)-5-fluoro-N2-[3-(1-methylpiperidin-4-yl)phenyl]-2,4-pyrimidinediamine Mono- Hydrochloric Acid Salt], the IC50 (in the assay on A549 (lung carcinoma) (setting [2]); in assay [1] (setting [3])) was ≤ 100 nM each time.
For the compound `Cc1cc(Nc2ncc(F)c(N[C@@H]3[C@H](C(=O)NC4CCC4)[C@H]4C=C[C@@H]3C4)n2)ccc1N1CCN(C)CC1` [compound 193, (1S,2S,3R,4R)-N4-[3-(N-Cyclobutyl)aminocarbonylbicyclo[2.2.1]hept-5-en-2-yl]-5-fluoro-N2-[3-methyl-4-(4-methylpiperazin-1-yl)phenyl]-2,4-pyrimidinediamine], the IC50 with A549 (lung carcinoma) (setting [4]) was > 10000 nM; in assay [1] (setting [5]) it was 1000 to 10000 nM.
On to `CCN1CCN(c2ccc(Nc3ncc(F)c(NC4C5C=CC(C5)C4C(N)=O)n3)cc2C)CC1` (racemic) [compound 241, Racemic-(2-exo,3-exo)-N4-(3-aminocarbonylbicyclo[2.2.1]hept-5-en-2-yl)-N2-[4-(4-ethylpiperazin-1-yl)-3-methylphenyl]-5-fluoro-2,4-pyrimidinediamine], for which the IC50 (in the assay on A549 (lung carcinoma) (setting [4]); in assay [1] (setting [5])) was ≤ 100 nM in each case.
On to `CN(C)CCN1CCc2cc(Nc3ncc(F)c(NC4C5C=CC(C5)C4C(=O)NC4CC4)n3)ccc21` (racemic) [compound 170, Racemic-(2-exo,3-exo)-N4-[3-cyclopropylaminocarbonylbicyclo[2.2.1]hept-5-en-2-yl)-N2-[1-(2-dimethylaminoethyl)-2,3-dihydroindol-5-yl]-5-fluoro-2,4-pyrimidinediamine], for which the IC50 (in the assay with A549 (lung carcinoma) (setting [2]); in assay [1] (setting [3])) was ≤ 100 nM in each case.
On to `CN1CCC(Oc2ccc(Nc3ncc(F)c(N[C@H]4[C@@H](C(N)=O)[C@@H]5C=C[C@H]4C5)n3)cc2C(F)(F)F)CC1` [compound 151, (1R,2R,3S,4S)-N4-(3-Aminocarbonylbicyclo[2.2.1]hept-5-en-2-yl)-5-fluoro-N2-[4-(1-methylpiperidin-4-yloxy)-3-trifluoromethylphenyl)-2,4-pyrimidinediamine], for which the IC50 (in the assay with A549 (lung carcinoma) (setting [2]); in assay [1] (setting [3])) was ≤ 100 nM in each case.
As to `Cc1cc(Nc2ncc(F)c(N[C@@H]3[C@H]4CC[C@H](C4)[C@@H]3C(N)=O)n2)ccc1N1CCN(C)CC1` (racemic) [compound 240, Racemic-(2-exo,3-exo)-N4-(3-aminocarbonylbicyclo[2.2.1]hept-2-yl)-5-fluoro-N2-[3-methyl-4-(4-methylpiperazin-1-yl)phenyl]-2,4-pyrimidinediamine], the IC50 (in the assay with A549 (lung carcinoma) (setting [4]); in assay [1] (setting [5])) was ≤ 100 nM each time.
